Results taken from the NIST ThermoML archive (doi:10.1016/j.tca.2015.03.023).
Numbers after ± are expanded uncertainties.

Experiments:
[1] = mn = molality of the nth substance listed, in mol/kg; settings: 298.15 K, 100 kPa, Liquid; for viscosity: Capillary tube (Ostwald / Ubbelohde) method; for speed of sound: Frequency=1 MHz, Linear variable-path acoustic interferometer; for mass density: Vibrating tube method; for molar conductivity: Alternating current cell with electrodes
[2] = 298.15 K, Liquid

CNC=O [N-methylformamide] + [Li+].[O-][Cl+3]([O-])([O-])[O-]
[1], m2 = 0
Settings	mass density [kg/m3]	speed of sound [m/s]	viscosity [mPa·s]
–	999.12 ± 1	1430.3 ± 2.5	1.653 ± 0.034

[K+].[O-][Cl+3]([O-])([O-])[O-] [potassium perchlorate] + CNC=O
[1]
Settings	mass density [kg/m3]	molar conductivity [S·m2/mol]	speed of sound [m/s]	viscosity [mPa·s]
m1 = 0.0004439	–	0.00119 ± 0.0002	–	–
m1 = 0.0005285	–	0.00117 ± 0.0002	–	–
m1 = 0.0006265	–	0.00115 ± 0.0002	–	–
m1 = 0.0006838	–	0.00113 ± 0.0002	–	–
m1 = 0.000722	–	0.00113 ± 0.0002	–	–
m1 = 0.0007846	–	0.00112 ± 0.0002	–	–
m1 = 0.0008474	–	0.00112 ± 0.0002	–	–
m1 = 0.0009126	–	0.0011 ± 0.0002	–	–
m1 = 0.0009685	–	0.00109 ± 0.0002	–	–
m1 = 0.001057	–	0.00108 ± 0.0002	–	–
m1 = 0.001149	–	0.00106 ± 0.0002	–	–
m1 = 0.001216	–	0.00105 ± 0.0002	–	–
m1 = 0.00129	–	0.00103 ± 0.0002	–	–
m1 = 0.001359	–	0.00103 ± 0.0002	–	–
m1 = 0.0153	1000.04 ± 1	–	1435.8 ± 2.5	1.66 ± 0.035
m1 = 0.0304	1001.02 ± 1	–	1449.9 ± 2.5	1.665 ± 0.035
m1 = 0.0457	1002.07 ± 1	–	1471.8 ± 2.5	1.669 ± 0.035
m1 = 0.0609	1003.15 ± 1	–	1499.7 ± 2.5	1.674 ± 0.035
m1 = 0.0759	1004.25 ± 1	–	1533.7 ± 2.6	1.677 ± 0.035
m1 = 0.0911	1005.39 ± 1	–	1577.6 ± 2.6	1.681 ± 0.035

CNC=O [N-methylformamide] + [K+].[O-][Cl+3]([O-])([O-])[O-]
[1], m2 = 0
Settings	mass density [kg/m3]	speed of sound [m/s]	viscosity [mPa·s]
–	999.12 ± 1	1430.3 ± 2.5	1.653 ± 0.034

[Na+].[O-][Cl+3]([O-])([O-])[O-] [sodium perchlorate] + CNC=O
[1]
Settings	mass density [kg/m3]	molar conductivity [S·m2/mol]	speed of sound [m/s]	viscosity [mPa·s]
m1 = 0.0001833	–	0.00113 ± 0.0002	–	–
m1 = 0.0002554	–	0.00111 ± 0.0002	–	–
m1 = 0.0003247	–	0.00109 ± 0.0002	–	–
m1 = 0.0003795	–	0.00107 ± 0.0002	–	–
m1 = 0.0004397	–	0.00105 ± 0.0002	–	–
m1 = 0.0005067	–	0.00103 ± 0.0002	–	–
m1 = 0.0005588	–	0.00101 ± 0.0002	–	–
m1 = 0.000621	–	0.00099 ± 0.0002	–	–
m1 = 0.0006765	–	0.000978 ± 0.0002	–	–
m1 = 0.0007431	–	0.000963 ± 0.0002	–	–
m1 = 0.0007846	–	0.000956 ± 0.0002	–	–
m1 = 0.000822	–	0.000947 ± 0.0002	–	–
m1 = 0.0008833	–	0.000925 ± 0.0002	–	–
m1 = 0.0009622	–	0.000906 ± 0.0002	–	–
m1 = 0.0145	999.72 ± 1	–	1434.9 ± 2.5	1.664 ± 0.035
m1 = 0.0298	1000.43 ± 1	–	1449.6 ± 2.5	1.674 ± 0.035
m1 = 0.0448	1001.19 ± 1	–	1470.8 ± 2.5	1.683 ± 0.035
m1 = 0.0599	1001.99 ± 1	–	1499.1 ± 2.5	1.692 ± 0.035
m1 = 0.0751	1002.84 ± 1	–	1534.9 ± 2.6	1.702 ± 0.035
m1 = 0.0902	1003.73 ± 1	–	1576.7 ± 2.6	1.711 ± 0.036

CNC=O [N-methylformamide] + [Na+].[O-][Cl+3]([O-])([O-])[O-]
[1], m2 = 0
Settings	mass density [kg/m3]	speed of sound [m/s]	viscosity [mPa·s]
–	999.12 ± 1	1430.3 ± 2.5	1.653 ± 0.034

CNC=O [N-methylformamide]
Settings	speed of sound [m/s]
[2], 100 kPa, Frequency=1 MHz, Linear variable-path acoustic interferometer	1430.3 ± 2.5

[2], 101.33 kPa
Settings	mass density [kg/m3]	viscosity [mPa·s]
Capillary tube (Ostwald / Ubbelohde) method	–	1.653 ± 0.034
Vibrating tube method	999.12 ± 1	–

[Li+].[O-][Cl+3]([O-])([O-])[O-] [lithium perchlorate] + CNC=O
[1]
Settings	mass density [kg/m3]	molar conductivity [S·m2/mol]	speed of sound [m/s]	viscosity [mPa·s]
m1 = 0.0001214	–	0.000939 ± 0.0002	–	–
m1 = 0.0001462	–	0.000926 ± 0.0002	–	–
m1 = 0.0001817	–	0.000907 ± 0.0002	–	–
m1 = 0.0002036	–	0.000895 ± 0.0002	–	–
m1 = 0.0002283	–	0.000879 ± 0.0002	–	–
m1 = 0.0002525	–	0.000875 ± 0.0002	–	–
m1 = 0.0002752	–	0.000854 ± 0.0002	–	–
m1 = 0.0003	–	0.000841 ± 0.0002	–	–
m1 = 0.0003244	–	0.000831 ± 0.0002	–	–
m1 = 0.0003557	–	0.000815 ± 0.0002	–	–
m1 = 0.0003756	–	0.000809 ± 0.0002	–	–
m1 = 0.0004004	–	0.000795 ± 0.0002	–	–
m1 = 0.0004406	–	0.000783 ± 0.0002	–	–
m1 = 0.0004687	–	0.000769 ± 0.0002	–	–
m1 = 0.015	999.44 ± 1	–	1433.8 ± 2.5	1.668 ± 0.035
m1 = 0.0301	999.85 ± 1	–	1447.3 ± 2.5	1.682 ± 0.035
m1 = 0.0452	1000.33 ± 1	–	1468.1 ± 2.5	1.696 ± 0.035
m1 = 0.0603	1000.86 ± 1	–	–	1.71 ± 0.036
m1 = 0.0604	–	–	1494.8 ± 2.5	–
m1 = 0.0755	1001.44 ± 1	–	1529.4 ± 2.6	1.725 ± 0.036
m1 = 0.0907	1002.06 ± 1	–	1569.9 ± 2.6	1.738 ± 0.036
